In ChEMBL document CHEMBL3507680, “University of Dundee, Gates Library screen for HepG2 cell viability”:

Assay: Human HepG2 cell viability assay in 384 well format
Type: toxicity, cell-based
Parameters: dose 125 nL, time 70.5 hour; concentration not given beside the values
Conditions: HepG2 cells, read-out: Inhibition

SMILES	cytotoxicity at 70.5 h [%]
CCCN1CCC2(Cc3ccccc3NC2=O)C1 (stereo not drawn)	-0.983
CCOCC(=O)N1CC[C@H]2OCC[C@@H](c3nnc(C)o3)[C@H]2C1	0.355
Fc1cnc(N2CCOCC3(CCCNC3)C2)nc1 (stereo not drawn)	12.2
CC(C)C(=O)N1CCCC2(CCCN2Cc2cccnc2)C1 (stereo not drawn)	1.65
Cc1cnc(N2CCC3(CC2)CC(NS(C)(=O)=O)CO3)nc1 (stereo not drawn)	1.23
CC(=O)N1CCO[C@@H]2CN(C(=O)c3ccc4ccccc4c3)CC[C@@H]2C1	-2.64
O=C(c1cc2c(s1)CCN2C(=O)C1CC1)N1CCCC1	-4.7
Cn1c(C(=O)NC2CCCC2)nc2c1CCN(Cc1ccccc1)C2	-5.5
Cc1cnc(N2CCC3(CC2)CC3CNC(=O)N(C)C)nc1 (stereo not drawn)	-6.55
COCCC1COC2(CCN(C(=O)C3CCC3)CC2)C1 (stereo not drawn)	-3.7
Cc1nnc([C@@H]2CC[C@@H]3[C@@H](CCN3C3CCC3)O2)o1	-4.45
Fc1cnc(N2CCOCC3(CCCN(c4cnccn4)C3)C2)nc1 (stereo not drawn)	-3.83
CN1CCN(C(=O)c2cc3c(s2)CCN3C(=O)C2CC2)CC1	-1.1
O=C(N1CCOCC1)N1CC[C@H]2[C@@H]1CCC(=O)N2c1ccccc1	-1.24
O=C(c1cnccn1)N1CCCC2(CCCN2Cc2cccnc2)C1 (stereo not drawn)	-1.76
O=C(c1ccc[nH]1)N1CCCC2(CCCN2Cc2cccnc2)C1 (stereo not drawn)	11.9
O=C(C1CC1)N1CC[C@H]2[C@@H]1CCC(=O)N2c1ccccc1	-2.42
CCS(=O)(=O)NCC1OCCc2cn(CCOC)nc21 (stereo not drawn)	-3.26
COC[C@H]1CC[C@H]2[C@H](CCN2S(=O)(=O)Cc2ccccc2)O1	-4.05
Cc1cc(C(=O)N2CCCC3(CCCN3Cc3cccnc3)C2)[nH]n1 (stereo not drawn)	12.8
CS(=O)(=O)N1CCC2(CC1)CC(OCC1CCOCC1)CO2 (stereo not drawn)	-7.58
Cc1ccccc1C(=O)N1CCCn2nnc(Cn3cccn3)c2C1	-9.23
CCS(=O)(=O)N1CC[C@H]2OCC[C@@]2(c2nnc(C)o2)C1	-7.55
COCC1CN(CC2CCOCC2)Cc2cn(CC3CCCC3)nc21 (stereo not drawn)	-7.67
O=C(c1ccc[nH]1)N1CCOC2(COCCN(c3cncnc3)C2)C1 (stereo not drawn)	-7.73
COCC1CN(Cc2ccoc2)Cc2cn(C)nc21 (stereo not drawn)	-7.39

SMILES	cytotoxicity at 70.5 h [%]
Cc1noc(C2CN(S(C)(=O)=O)Cc3ccnn3C2)n1 (stereo not drawn)	-7.77
Cc1noc(C)c1CN1C[C@@H](OCC(=O)N(C)C)[C@H]2OCCC[C@H]21	-9.4
O=S(=O)(C1CC1)N1CC[C@]2(C[C@H](OCC3CCOCC3)CO2)C1	-9.21
CCCS(=O)(=O)N1CC[C@H]2OCC[C@@]2(c2nnc(C)o2)C1	8.91
Cc1nnc([C@@]23CCO[C@@H]2CCN(S(C)(=O)=O)C3)o1	-0.978
Cc1noc(C2CN(S(=O)(=O)C3CC3)Cc3ccnn3C2)n1 (stereo not drawn)	10.2
CN(C)C(=O)c1n[nH]c2c1CCN(Cc1nccs1)C2	-4.93
CS(=O)(=O)N1CCCC12CCCN(C(=O)c1ccncc1)C2 (stereo not drawn)	-7.69
Cc1ccc(C)c(Oc2cc(-n3nc(C)c(C#N)c3N)nc(C)n2)c1	-6.07
O=C(Cn1nc(Br)nc1Br)N1CCOCC1	27.3
O=c1[nH]cnc2[nH]c(N3CCOCC3)nc12	26.5
COc1ccc(C2SCC(=O)N2c2ncc(C)s2)cc1 (stereo not drawn)	-1.35
Cc1cnc(N2C(=O)CSC2c2cccs2)s1 (stereo not drawn)	28.2
CC(C)Sc1nnc(CCNC(=O)OC(C)(C)C)o1	26.1
COc1ccc2c(ccn2CCN)c1	5.97
CC(C)CN1C(=O)c2ccc(C(=O)NCCc3c[nH]cn3)cc2C1=O	-0.52
Cc1ccc2c(ccn2CCC(=O)NC[C@@H]2CCCN3CCCC[C@H]23)c1	1.22
COc1ccc(C2CC(=O)Oc3cc(C)[nH]c(=O)c32)cc1 (stereo not drawn)	-2.66
COC(=O)CC(c1ccc(OC)c(OC)c1)c1oc(C)cc(=O)c1O (stereo not drawn)	5.4
O=C(CNC(=O)N1CCc2c([nH]c3ccc(Cl)cc23)C1)N1CCOCC1	37.5
COC(=O)COc1nc(CC(C)C)c2c(c1C#N)CCCC2	7.01
O=C(NCCN1CCCCC1)c1nc2ccccc2c(=O)[nH]1	4.35
O=C(NCCN1CCNCC1)c1nc2ccccc2c(=O)[nH]1	-2.57
NC(=O)c1nc(COc2ccc3c(c2)OCO3)no1	-12.9
CC(C)[C@H](NC(=O)NC1CCS(=O)(=O)C1)C(=O)NCc1cccnc1 (stereo partly drawn)	6.1
O=C(c1nc(COc2ccc3c(c2)OCO3)no1)N1CCCC1	-3.83

SMILES	cytotoxicity at 70.5 h [%]
CC(C)[C@H](NC(=O)NC1CCS(=O)(=O)C1)C(=O)NCc1ccccc1Cl (stereo partly drawn)	0.909
O=C(Cn1ccc2c(Cl)cccc21)N[C@@H](C(=O)O)c1ccccc1	0.804
CC(C)CN1CCCC2(CCN(c3ccccn3)C2)C1 (stereo not drawn)	8.64
Cn1cc(CN2CC[C@H]3O[C@H](C(=O)NC4CC4)CC[C@H]32)c2ccccc21	-3.36
CC(=O)N1CCO[C@@H]2CN(C(=O)c3ccc4ncccc4c3)CC[C@@H]2C1	-3.03
O=S(=O)(C1CC1)N1CC[C@@H](OCC2CC2)[C@@H]1Cc1ccncc1	-4.77
Cc1cnc(N2CCC3(CC2)CC3CNC(=O)C2CCC2)nc1 (stereo not drawn)	-1.64
CN(C)C[C@H]1OC[C@@H]2CCN(C(=O)c3ccc[nH]3)C[C@@H]21	-4.7
CN1C[C@@H]2COC[C@]2(C(=O)NCCc2cccs2)C1	-5.55
CCCS(=O)(=O)N1Cc2ccnn2CC(c2nc(C)no2)C1 (stereo not drawn)	-4.93
COc1ccc(N2CCCC3(C2)CN(c2cccnc2)CCO3)cc1 (stereo not drawn)	-9.47
Cc1ccc(Nc2ncnc3c2CCN(CC2CCOC2)CC3)cc1 (stereo not drawn)	-7.38
c1cnc(N2CCO[C@H]3CN(Cc4csnn4)C[C@H]32)cn1	-11.1
Cn1cc(CN2CCC3(CCC(C(=O)NCC4CC4)C3)CC2)cn1 (stereo not drawn)	-9.54
Cc1ccsc1C(=O)N1CC[C@H]2CO[C@H](CN(C)C)[C@H]2C1	-6.98
O=C(c1ccncc1)N1CCOC2(COCCN(c3cncnc3)C2)C1 (stereo not drawn)	-11.1
CS(=O)(=O)N1CCC2(CC1)COC(COc1cccnc1)C2 (stereo not drawn)	-8.18
CC(C)CCN1CCC2(CCCN(c3nncs3)C2)C1 (stereo not drawn)	-5.61
Cc1nc(C)n(CC2CN(Cc3nccs3)Cc3nccn3C2)n1 (stereo not drawn)	-2.68
CCOCC(=O)N1CC[C@H]2OCC[C@@]2(COc2ncccc2F)C1	-12
O=C(c1ccncc1)N1CCC2(CC1)C(=O)Nc1ccccc12	-10.1
c1cnc(N2CC[C@@H]3O[C@@H](COCc4cccnc4)CC[C@@H]32)nc1	-0.916
O=C(c1ccncc1)N1CCOC2(COCCN(c3cccnc3)C2)C1 (stereo not drawn)	-8.51
c1cnc(N2CCOC3(CCCN(c4cnccn4)C3)C2)nc1 (stereo not drawn)	-8.79
CN(C)C[C@]12COC[C@H]1CN(Cc1ccccn1)C2	-8.89
c1cncc(COCC2CN(Cc3cccnc3)Cc3ccnn3C2)c1 (stereo not drawn)	-9.95
